Converted amounts (≈) assume the structure as drawn.

The subject of one data set is Candida tropicalis. Nature of the data set: Antifungal activity against Candida tropicalis GIM2.183 assessed as inhibition of fungal growth by NCCLS protocol based method. Type of data set: functional.
Data set [1] has as its system Cryptococcus neoformans. Nature of the data set: Antifungal activity against Cryptococcus neoformans GIM2.209 assessed as inhibition of fungal growth by NCCLS protocol based method. Type of data set: functional.
Data set [2] deals with Candida albicans. As to the kind of experiment: Antifungal activity against Candida albicans SC5314 assessed as inhibition of fungal growth by NCCLS protocol based method. Type of data set: functional.
The next data set deals with Aspergillus fumigatus. As to the kind of experiment: Antifungal activity against Aspergillus fumigatus CGMCC3.7795 assessed as inhibition of fungal growth by NCCLS protocol based method. It counts as functional.
Data set [3] concerns Candida albicans. As to the kind of experiment: Antifungal activity against Candida albicans GIM2.194 assessed as inhibition of fungal growth by NCCLS protocol based method. Type of data set: functional.
The nature of data set [4]: Metabolic stability in human liver microsomes assessed as half life at 100 uM in the presence of NADPH measured upto 60 mins by LC-MS/MS analysis. Type of data set: ADME, Microsome.
In another data set the test system is Pichia kudriavzevii. Nature of the data set: Antifungal activity against Candida krusei GIM2.1 assessed as inhibition of fungal growth by NCCLS protocol based method. Type of data set: functional.
The subject of a further data set is Candida parapsilosis. As to the kind of experiment: Antifungal activity against Candida parapsilosis GIM2.190 assessed as inhibition of fungal growth by NCCLS protocol based method. To be noted: Lodderomyces parapsilosis. Type of data set: functional.
Data set [5] has as its system Candida albicans. Nature of the data set: Antifungal activity against fluconazole resistant Candida albicans CaR assessed as inhibition of fungal growth by NCCLS protocol based method. It counts as functional.
The test system of data set [6] is Candida albicans. As to the kind of experiment: Antifungal activity against fluconazole and itraconazole resistant Candida albicans 17# assessed as inhibition of fungal growth by NCCLS protocol based method. Type of data set: functional.
In data set [7] the test system is Candida albicans. As to the kind of experiment: Antifungal activity against Candida albicans CPCC400523 assessed as inhibition of fungal growth by NCCLS protocol based method. Type of data set: functional.
The subject of data set [8] is Cryptococcus neoformans. As to the kind of experiment: Antifungal activity against Cryptococcus neoformans CGMCC2.3161 assessed as inhibition of fungal growth by NCCLS protocol based method. It counts as functional.
The target of data set [9] is T1, Lanosterol 14-alpha demethylase (Candida albicans (strain SC5314 / ATCC MYA-2876) (Yeast), UniProt P10613). Nature of the data set: Inhibition of Candida albicans CYP51 assessed as lanosterol level at 0.015 ug/ml measured after 18 hrs by GC-MS analysis relative to control. Further details: scale not given: the % may be the effect or the level left. To be noted: at 0.015 µg/mL.

Data set [10] in a line: Intrinsic microsomal clearance in human liver microsomes at 100 uM in the presence of NADPH measured up to 60 mins by LC-MS/MS analysis. To be noted: read-out: CLH. It counts as ADME, Microsome.
Data set [11] is described as follows: Intrinsic hepatic clearance in human liver microsomes at 100 uM in the presence of NADPH measured up to 60 mins by LC-MS/MS analysis. Type of data set: ADME, Microsome. The settings on record: 1 h.
The nature of data set [12]: Metabolic stability in human liver microsomes assessed as compound remaining at 100 uM measured after 60 mins in the presence of NADPH by LC-MS/MS analysis. Type of data set: ADME, Microsome. To be noted: read-out: Stabilty.
Data set [13] is described as follows: Metabolic stability in human liver microsomes assessed as compound remaining at 100 uM measured after 60 mins in the absence of NADPH by LC-MS/MS analysis. It counts as ADME, Microsome. The settings on record: read-out: Stabilty.
The nature of data set [14]: Metabolic stability in human plasma assessed as parent compound remaining at 100 uM measured after 60 mins by LC-MS/MS analysis. The settings on record: read-out: Stabilty. Type of data set: ADME, cell-free.
Data set [15] can be described thus: Metabolic stability in human plasma assessed as parent compound remaining at 100 uM measured after 120 mins by LC-MS/MS analysis. It counts as ADME, cell-free. To be noted: 2 h.
The nature of data set [16]: Metabolic stability in human plasma assessed as half life at 100 uM measured after 60 mins by LC-MS/MS analysis. Type of data set: ADME, cell-free.
In the next data set the target is T2, Cytochrome P450 1A2 (Homo sapiens, UniProt P05177).
T2 sequence (P05177 whole entry): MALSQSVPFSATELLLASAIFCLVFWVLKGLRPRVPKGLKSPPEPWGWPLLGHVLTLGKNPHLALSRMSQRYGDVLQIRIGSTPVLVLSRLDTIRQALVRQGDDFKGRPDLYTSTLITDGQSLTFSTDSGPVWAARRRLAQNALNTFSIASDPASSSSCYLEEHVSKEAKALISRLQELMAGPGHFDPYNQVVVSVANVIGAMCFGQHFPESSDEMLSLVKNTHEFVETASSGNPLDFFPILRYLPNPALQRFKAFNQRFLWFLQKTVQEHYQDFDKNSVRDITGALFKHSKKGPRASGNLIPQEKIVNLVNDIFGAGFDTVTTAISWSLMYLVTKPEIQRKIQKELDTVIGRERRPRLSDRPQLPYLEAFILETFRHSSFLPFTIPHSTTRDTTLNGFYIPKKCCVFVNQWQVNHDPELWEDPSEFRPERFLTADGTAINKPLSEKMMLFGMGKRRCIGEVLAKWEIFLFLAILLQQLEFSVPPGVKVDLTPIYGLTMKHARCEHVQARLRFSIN
As to the kind of experiment: Inhibition of CYP1A2 in human liver microsome incubated for 10 mins in the presence of NADPH by LC-MS/MS analysis. Type of data set: ADME, microsomes.

For the next data set, the target named is Cytochrome P450 2C9 (Homo sapiens, UniProt P11712). Nature of the data set: Inhibition of CYP2C9 in human liver microsome incubated for 10 mins in the presence of NADPH by LC-MS/MS analysis. It counts as ADME, microsomes.
A further data set addresses Cytochrome P450 2C19 (Homo sapiens, UniProt P33261). As to the kind of experiment: Inhibition of CYP2C19 in human liver microsome incubated for 10 mins in the presence of NADPH by LC-MS/MS analysis. Type of data set: ADME, microsomes.
A further data set has as its target Cytochrome P450 2D6 (Homo sapiens, UniProt P10635). Nature of the data set: Inhibition of CYP2D6 in human liver microsome incubated for 10 mins in the presence of NADPH by LC-MS/MS analysis. Type of data set: ADME, microsomes.
Another data set concerns the target Cytochrome P450 3A4 (Homo sapiens, UniProt P08684). As to the kind of experiment: Inhibition of CYP3A4 in human liver microsome incubated for 10 mins in the presence of NADPH by LC-MS/MS analysis. It counts as ADME, microsomes.
Data set [17] addresses T1, Lanosterol 14-alpha demethylase. Nature of the data set: Inhibition of Candida albicans CYP51 assessed as ergosterol level at 0.015 ug/ml measured after 18 hrs by GC-MS analysis relative to control. The arrangement: scale not given: the % may be the effect or the level left. To be noted: at 0.015 µg/mL.
Data set [18] has the same target. As to the kind of experiment: Inhibition of Candida albicans CYP51 assessed as eburicol level at 0.015 ug/ml measured after 18 hrs by GC-MS analysis relative to control. The arrangement: scale not given: the % may be the effect or the level left. To be noted: at 0.015 µg/mL.
The target is the same in data set [19]. As to the kind of experiment: Inhibition of Candida albicans CYP51 assessed as 14alpha-methylergosta-8,24(28)-dien3beta-6alpha-diol level at 0.015 ug/ml measured after 18 hrs by GC-MS analysis relative to control. The arrangement: scale not given: the % may be the effect or the level left. The settings on record: at 0.015 µg/mL.
Data set [20] shares this target. Nature of the data set: Inhibition of Candida albicans CYP51 assessed as unknown sterol level at 0.015 ug/ml measured after 18 hrs by GC-MS analysis relative to control. Further details: scale not given: the % may be the effect or the level left. To be noted: at 0.015 µg/mL.

T1 sequence (P10613 whole entry): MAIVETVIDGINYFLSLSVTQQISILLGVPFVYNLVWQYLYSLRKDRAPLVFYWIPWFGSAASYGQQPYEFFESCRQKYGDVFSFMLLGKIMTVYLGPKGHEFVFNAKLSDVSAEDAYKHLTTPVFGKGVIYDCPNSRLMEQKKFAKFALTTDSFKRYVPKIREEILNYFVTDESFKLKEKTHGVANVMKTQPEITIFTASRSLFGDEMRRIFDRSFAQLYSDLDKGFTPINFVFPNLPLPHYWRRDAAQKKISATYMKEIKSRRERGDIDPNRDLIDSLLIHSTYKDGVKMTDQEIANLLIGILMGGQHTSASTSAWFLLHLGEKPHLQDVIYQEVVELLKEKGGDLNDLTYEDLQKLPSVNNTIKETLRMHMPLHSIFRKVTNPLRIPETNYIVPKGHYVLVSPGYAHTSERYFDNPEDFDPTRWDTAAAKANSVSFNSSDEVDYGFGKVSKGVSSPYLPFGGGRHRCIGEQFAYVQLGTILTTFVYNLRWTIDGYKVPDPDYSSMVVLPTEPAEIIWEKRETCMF
Chain of Cytochrome P450 2C9 (P11712 whole entry): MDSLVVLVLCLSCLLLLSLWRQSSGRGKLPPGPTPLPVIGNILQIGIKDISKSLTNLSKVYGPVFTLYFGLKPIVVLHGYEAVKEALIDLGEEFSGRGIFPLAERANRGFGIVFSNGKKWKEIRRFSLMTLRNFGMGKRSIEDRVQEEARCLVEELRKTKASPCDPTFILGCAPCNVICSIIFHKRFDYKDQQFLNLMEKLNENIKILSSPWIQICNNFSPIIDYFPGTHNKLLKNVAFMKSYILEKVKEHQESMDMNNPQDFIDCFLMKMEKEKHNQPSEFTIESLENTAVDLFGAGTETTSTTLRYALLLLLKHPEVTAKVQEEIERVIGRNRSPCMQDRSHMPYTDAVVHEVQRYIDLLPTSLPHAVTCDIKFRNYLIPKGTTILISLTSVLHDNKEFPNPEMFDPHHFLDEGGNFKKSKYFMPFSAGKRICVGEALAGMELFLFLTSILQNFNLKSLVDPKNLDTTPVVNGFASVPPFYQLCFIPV
Chain of Cytochrome P450 3A4 (P08684 whole entry): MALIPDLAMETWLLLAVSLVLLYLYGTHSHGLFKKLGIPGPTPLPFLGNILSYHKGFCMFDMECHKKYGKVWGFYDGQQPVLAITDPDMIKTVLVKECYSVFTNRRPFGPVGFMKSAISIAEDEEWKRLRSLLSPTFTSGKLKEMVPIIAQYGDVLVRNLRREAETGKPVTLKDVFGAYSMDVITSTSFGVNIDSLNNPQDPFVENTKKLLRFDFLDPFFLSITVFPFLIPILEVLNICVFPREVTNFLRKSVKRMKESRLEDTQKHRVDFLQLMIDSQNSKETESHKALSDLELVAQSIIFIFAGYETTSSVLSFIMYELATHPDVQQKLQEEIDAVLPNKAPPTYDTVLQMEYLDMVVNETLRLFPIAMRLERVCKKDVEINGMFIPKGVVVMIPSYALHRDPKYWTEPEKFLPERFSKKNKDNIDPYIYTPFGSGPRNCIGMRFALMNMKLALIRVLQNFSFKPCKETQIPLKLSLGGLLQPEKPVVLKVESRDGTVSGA
Chain of Cytochrome P450 2C19 (P33261 whole entry): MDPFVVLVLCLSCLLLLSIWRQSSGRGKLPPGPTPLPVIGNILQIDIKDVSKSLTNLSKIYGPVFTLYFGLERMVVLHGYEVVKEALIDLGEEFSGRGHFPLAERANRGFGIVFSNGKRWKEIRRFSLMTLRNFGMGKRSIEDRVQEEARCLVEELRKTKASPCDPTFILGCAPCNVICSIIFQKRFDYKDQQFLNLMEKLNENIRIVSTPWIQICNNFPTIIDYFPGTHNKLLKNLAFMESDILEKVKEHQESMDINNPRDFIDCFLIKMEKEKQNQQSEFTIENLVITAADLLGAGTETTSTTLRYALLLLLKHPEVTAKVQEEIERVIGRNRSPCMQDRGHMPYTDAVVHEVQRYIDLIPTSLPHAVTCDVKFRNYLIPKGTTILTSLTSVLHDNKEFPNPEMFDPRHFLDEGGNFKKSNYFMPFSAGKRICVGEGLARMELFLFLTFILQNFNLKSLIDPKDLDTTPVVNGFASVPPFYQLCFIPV
Chain of Cytochrome P450 2D6 (P10635 whole entry): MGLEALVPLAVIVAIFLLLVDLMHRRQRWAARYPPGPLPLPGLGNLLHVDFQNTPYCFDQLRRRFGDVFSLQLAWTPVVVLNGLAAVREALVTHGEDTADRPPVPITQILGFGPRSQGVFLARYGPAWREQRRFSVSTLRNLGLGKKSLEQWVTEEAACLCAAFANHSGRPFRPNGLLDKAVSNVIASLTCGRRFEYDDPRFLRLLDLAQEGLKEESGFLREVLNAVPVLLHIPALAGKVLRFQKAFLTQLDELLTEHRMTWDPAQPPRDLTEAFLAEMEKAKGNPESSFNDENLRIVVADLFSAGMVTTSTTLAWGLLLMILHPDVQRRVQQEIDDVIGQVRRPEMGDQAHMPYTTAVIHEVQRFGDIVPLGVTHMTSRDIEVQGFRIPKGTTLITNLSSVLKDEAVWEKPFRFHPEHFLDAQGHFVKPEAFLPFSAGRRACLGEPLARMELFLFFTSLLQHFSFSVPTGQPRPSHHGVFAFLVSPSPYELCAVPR

Consider `c1ccc(-c2ccc(C3=NC(Cn4ccnc4)(c4ccccc4)CO3)cc2)cc1` (stereo not drawn), for which the MIC with Candida tropicalis is under 0.125 µg/mL; in the data set with Cryptococcus neoformans [1], 32 µg/mL (≈ 84.3 µM); with Candida albicans [2], under 0.125 µg/mL; in the data set with Aspergillus fumigatus, 1 µg/mL (≈ 2.64 µM); with Candida albicans [3], under 0.125 µg/mL. Moreover, the half-life at 100 µM in data set [4] was 106 min.
Regarding `Fc1ccc(C2(Cn3cncn3)COC(c3ccc(-c4ccccc4F)cc3)=N2)c(F)c1` (stereo not drawn), the MIC in the data set with Candida tropicalis was 0.06 µg/mL (≈ 0.138 µM); in the data set on Candida albicans [2], under 0.03 µg/mL; with Aspergillus fumigatus it was over 64 µg/mL; in the data set with Candida albicans [3] it was 0.06 µg/mL (≈ 0.138 µM); in the data set on Pichia kudriavzevii, 0.25 µg/mL (≈ 0.575 µM); with Candida parapsilosis, 4 µg/mL (≈ 9.21 µM). The minimum inhibitory concentration (MIC) is 0.5 µg/mL (≈ 1.15 µM) with Candida albicans [5] and over 64 µg/mL in the data set with Candida albicans [6].
On to `c1ccc(-c2ccc(C3=N[C@@H](Cn4ccnc4)CO3)cc2)cc1`, for which the MIC in the data set with Candida albicans [2] is 1 µg/mL (≈ 3.3 µM); with Candida albicans [7], 8 µg/mL (≈ 26.4 µM); in the data set with Cryptococcus neoformans [8], over 64 µg/mL; in the data set with Aspergillus fumigatus, 1 µg/mL (≈ 3.3 µM). The half-life at 100 µM in data set [4] worked out at 23.2 min.
In the case of `Fc1ccc(C2(Cn3cncn3)COC(c3ccc(-c4cccc(F)c4)cc3)=N2)cc1` (stereo not drawn), the Activity in data set [9] turned out to be 18.96%; in [17] it was 35.8%; in [18], 7.04%; in data set [19] it was 34.14%; in data set [20], 1.73%. For the same compound, the MIC in the data set with Candida tropicalis was 0.06 µg/mL (≈ 0.144 µM); in the data set with Candida albicans [2], under 0.03 µg/mL; in the data set with Aspergillus fumigatus it was over 64 µg/mL; in the data set on Candida albicans [3] it was under 0.03 µg/mL; in the data set with Pichia kudriavzevii it was 0.25 µg/mL (≈ 0.6 µM); in the data set with Candida parapsilosis, 8 µg/mL (≈ 19.2 µM). Moreover, the MIC in the data set on Candida albicans [5] was 0.5 µg/mL (≈ 1.2 µM); in the data set on Candida albicans [6], over 64 µg/mL. In addition, the half-life at 100 µM was 59.1 min in data set [4] and over 288 min in [16]. Besides, in data set [10], the microsomal CLint at 100 µM was 23.5 µL/min/mg. Further, in data set [11], the CLH worked out at 1.27 mL/h/kg. For the same compound, the remaining at 1 h, 100 µM came to 47.1% in [12], 79.9% in data set [13] and 98.7% in data set [14]. In addition, in data set [15], the Stabilty is on record as 115.8%. Besides, the IC50 at Cytochrome P450 1A2 worked out at 21.2 µM; at Cytochrome P450 2C9, 3.8 µM; on Cytochrome P450 2C19 it was 1.3 µM; on Cytochrome P450 2D6, 40.1 µM; at Cytochrome P450 3A4, 15.2 µM.
Consider `Fc1cccc(-c2ccc(C3=NC(Cn4cncn4)(c4ccc(F)cc4F)CO3)cc2)c1` (stereo not drawn), for which the MIC in the data set on Candida tropicalis is 0.06 µg/mL (≈ 0.138 µM); in the data set on Candida albicans [2], under 0.03 µg/mL; in the data set with Aspergillus fumigatus it was over 64 µg/mL; with Candida albicans [3] it was 0.06 µg/mL (≈ 0.138 µM); with Pichia kudriavzevii, 0.25 µg/mL (≈ 0.575 µM); in the data set on Candida parapsilosis, over 64 µg/mL. Also, the results for the minimum inhibitory concentration (MIC) with Candida albicans [5] and with Candida albicans [6] were 0.5 µg/mL (≈ 1.15 µM) and over 64 µg/mL, respectively.
